Measured values reported in ChEMBL document CHEMBL5523698, “Design, synthesis, and biological evaluation of phenylcyclopropylamine-entinostat conjugates that selectively target cancer cells” (Bioorg Med Chem, 2024).
pIC50: −log10 of the molar value. Calls of active or inactive are those of the source. The calls are words filed in the database; no cut-off is given here.

How the values were obtained:
[1] = molecular target: T1, Lysine-specific histone demethylase 1A (Homo sapiens, UniProt O60341); assay: Drug metabolism assessed as LSD1 (unknown origin) mediated entinostat release; assay type: ADME
[2] = molecular target: T1, Lysine-specific histone demethylase 1A
Description: Inhibition of human recombinant LSD1 using H3K4me2 peptide substrate preincubated for 15 mins followed by substrate addition and measured after 30 mins by fluorescence based assay

[3] = molecular target: T1, Lysine-specific histone demethylase 1A; assay: Potency index, ratio of PCPA IC50 to test compound IC50 for inhibition of human recombinant LSD1
[4] = molecular target: T1, Lysine-specific histone demethylase 1A; assay: Drug metabolism assessed as LSD1 (unknown origin) mediated entinostat release incubated for 24 hrs by HPLC analysis; assay type: ADME
[5] = molecular target: T1, Lysine-specific histone demethylase 1A; assay: Inhibition of LSD1 in human PC-3 cells assessed as increase in H3K4me2 level incubated for 24 hrs by Western blotting analysis; assay type: cell-based; conditions: dose 0.1-1 µM
[6] = molecular target: T2, Histone deacetylase (Homo sapiens) (UniProt Q13547+O15379+Q9UBN7+Q92769+Q9UQL6+Q8WUI4+Q9BY41+Q96DB2+P56524+Q9UKV0+Q969S8); assay: Inhibition of HDAC in human PC-3 cells assessed as H3K9 acetylation at 0.1 to 1 uM incubated for 24 hrs by Western blotting analysis; assay type: cell-based; conditions: dose 0.1-1 µM
[7] = molecular target: T1, Lysine-specific histone demethylase 1A; assay: Inhibition of LSD1 in human PC-3 cells assessed as fold increase in H3K4me2 to H3 ratio at 0.1 uM incubated for 24 hrs by Western blotting analysis (reference value: 1); assay type: cell-based
[8] = molecular target: T1, Lysine-specific histone demethylase 1A; assay: Inhibition of LSD1 in human PC-3 cells assessed as fold increase in H3K4me2 to H3 ratio at 0.3 uM incubated for 24 hrs by Western blotting analysis (reference value: 1); assay type: cell-based
[9] = molecular target: T1, Lysine-specific histone demethylase 1A; assay: Inhibition of LSD1 in human PC-3 cells assessed as fold increase in H3K4me2 to H3 ratio at 1 uM incubated for 24 hrs by Western blotting analysis (reference value: 1); assay type: cell-based
[10] = molecular target: T2, Histone deacetylase (Homo sapiens); assay: Inhibition of HDAC in human PC-3 cells assessed as fold increase in acetylated H3K9 to H3 ratio at 0.1 uM incubated for 24 hrs by Western blotting analysis (reference value: […]); assay type: cell-based
[11] = molecular target: T2, Histone deacetylase (Homo sapiens); assay: Inhibition of HDAC in human PC-3 cells assessed as fold increase in acetylated H3K9 to H3 ratio at 0.3 uM incubated for 24 hrs by Western blotting analysis (reference value: 1); assay type: cell-based
[12] = molecular target: T2, Histone deacetylase (Homo sapiens); assay: Inhibition of HDAC in human PC-3 cells assessed as fold increase in acetylated H3K9 to H3 ratio at 1 uM incubated for 24 hrs by Western blotting analysis (reference value: […]); assay type: cell-based
HL-60 = assay: cells; conditions: Homo sapiens, HL-60, 72 h
Description: Antiproliferative activity against human HL-60 cells incubated for 3 days by alamar blue assay

PC-3 = assay: cells; conditions: Homo sapiens, PC-3, 72 h
Description: Antiproliferative activity against human PC-3 cells incubated for 3 days by alamar blue assay

LN-18 = assay: cells; conditions: Homo sapiens, LN-18, 72 h
Description: Antiproliferative activity against human LN-18 cells incubated for 3 days by alamar blue assay

in vitro = conditions: human, PrEC cells
Description: Cytotoxicity against human PrEC cells incubated for 3 days by alamar blue assay

Drug metabolism [1] | Compound | pIC50 [2] | Ratio IC50 [3] | Drug metabolism [4] | inhibition [5] | inhibition [6] | fold change (FC) [7] | fold change (FC) [8] | fold change (FC) [9] | fold change (FC) [10] | fold change (FC) [11] | fold change (FC) [12] | GI50 (HL-60) | GI50 (PC-3) | GI50 (LN-18) | GI50 at 72 h (in vitro)
Metabolite_Notdetected | CN(CCN(C)C1CC1c1ccccc1)C(=O)Nc1ccccc1NC(=O)c1ccc(CNC(=O)OCc2cccnc2)cc1 (stereo unspecified) | 4.30 | – | – | – | – | – | – | – | – | – | – | – | – | – | –
– | CN(CCN(C)C1CC1c1ccccc1)C(=O)Oc1ccc(COC(=O)Nc2ccccc2NC(=O)c2ccc(CNC(=O)OCc3cccnc3)cc2)cc1 (stereo unspecified) | 6.20 | 40 | Metabolite_Detected | Dose-Dependent Effect | Active | 1.18 | 1.49 | 1.58 | 1.48 | 1.77 | 2.01 | 4490 nM | 1180 nM | 5620 nM | > 100000 nM
– | Nc1ccccc1NC(=O)c1ccc(CNC(=O)OCc2cccnc2)cc1 [ENTINOSTAT] | – | – | – | – | – | – | – | – | – | – | – | 214 nM | 87 nM | 917 nM | 2230 nM
